Results reported in paper PMC7467771, “Lipophilic Arginine Esters: The Gateway to Preservatives without Side Effects” (Molecular Pharmaceutics, 2020).

Experiments:
[1] = octanol/water partition coefficient (log P) by TNBS assay; format: physicochemical; details: octanol/water mixture 1:1 v/v; mean, n = 3
Method: Log P of Arg and both Arg-esters were determined using an already described method.[15] Each compound was dissolved in an octanol/water mixture (1:1, v/v). Afterward, octanol and water phases were separated by a high-speed mini centrifuge (Fisher Scientific, Illinois USA), and the concentration of each compound in each phase was determined by the TNBS assay. For this, a 50 μL volume from each phase was diluted 10 times with 0.1 M sodium bicarbonate (pH 8.5) containing 40% (v/v) isopropyl alcohol. After dilution, 250 μL of the TNBS reagent (0.01%, v/v) prepared in 0.1 M sodium bicarbonate (pH 8.5) was added to each sample that was incubated at 37 °C. After 2 h, the reaction was stopped by adding 250 μL of 10% (m/v) SDS and 125 μL of 1 M HCl. The absorbance of each sample was measured at 335 nm using a Spark multifunctional microplate reader (Tecan Austria, GmbH). The logarithm of the octanol/water absorbance ratio was expressed as log P for each sample.

[2] = test system: lipase from porcine pancreas; experiment: degradation of arginine esters by lipase (pH-stat titration); format: in vitro ADME; details: within 3 h, 1 mM ester, pH 6.8, 37 °C
Method: Lipase-catalyzed hydrolytic degradation of Arg-OL and Arg-DT esters was carried out using a previously described experimental setup.[16] Digestion medium consisted of 2 mM Tris buffer with 5 mM CaCl2 and 150 mM NaCl. The medium pH was adjusted to 6.8. Lipase solution was freshly prepared before the experiment as follows: 0.5 g of lipase was mixed for 10 min in 10 mL of digestion medium, followed by centrifugation at 12 000 rpm and 4 °C for 15 min. The supernatant was collected for the degradation test and ice-stored until use. For the degradation test, solutions of Arg-OL and Arg-DT were prepared in the concentration of 1 mM in digestion buffer, and the pH was adjusted to 6.8 using 0.5 M NaOH. Thereafter, 2 mL of lipase solution was added to 18 mL of the Arg-surfactant solution to initiate ester degradation under continuous stirring at 37 °C. The ester hydrolysis was reflected by monitoring the drop in pH due to the release of arginine and titrated to keep the pH at 6.8 with the addition of 0.5 M NaOH. The experiment was continued for 3 h. Back-titration was also performed at the end of the experiment by raising the pH to 9, and additional consumption of the NaOH volume reflected the nonionized form of an amino acid. […]

[3] = test system: Caco-2 cells; experiment: resazurin assay, cytotoxicity; format: cell-based; details: for cytotoxicity (samples showing >80% cell viability considered nontoxic): Caco-2, 4 h incubation, at 3000 μg mL^–1; for EC50: Homo sapiens, Caco-2, 4 h, read-out: EC50 (concentration causing 50% cell death)
Method: The resazurin assay was used to determine the cytotoxic potential of Arg-esters according to a previous method with some minor modifications.[15] Caco-2 cells were seeded in a 24-well cell culture plate at 25 000 cells per well density and kept in an incubator at 37 °C under a 95% relative humidity environment and 5% CO2 level. Minimum essential medium (MEM) supplemented with streptomycin (0.1 mg […]), penicillin (100 units […]), and fetal calf serum (FCS) 10% (v/v) was used for growing cells. During a growth period of 14 days, the medium was replaced every other day. On the day of the experiment, test solutions of Arg-OL and Arg-DT esters were prepared in 25 mM HBS (HEPES buffered saline) buffer (pH 7.4) in the concentration range of 1000–3000 μg mL^–1. For comparison, the same concentrations of BAC and cetrimide were also prepared in HBS. HBS without any addition was used as a positive control, and Triton X-100 (2%, v/v) in HBS was used as a negative control. The growth medium from all wells of the cell culture plate was removed, and cells were washed three times with HBS preheated at 37 °C. Each test solution and controls were then added to individual wells in a volume of 500 μL, and the cell culture plate was incubated under the same conditions. After 4 h, the solution from each well was removed, and cells were washed with HBS (pH 7.4) preheated at 37 °C. Then, 500 μL of resazurin (2.2 mM) per well was added and incubated for further 3 h under the same conditions. Afterward, the fluorescence of the supernatant from each well was measured at the excitation wavelength of 540 nm and an emission wavelength of 590 nm. Cell viability was calculated by the equation: [drawing 4]

[4] = test system: red blood cells (RBC); experiment: hemolysis study; format: cell-based; details: human RBC, 1 h, 37 °C, PBS pH 7.4
Method: The hemolysis test was performed with red blood cells (RBC) to evaluate the potential toxic effect of Arg-surfactants on human cells.[18] Human RBC concentrate was kindly donated by the Tirol Kliniken GmbH, Innsbruck, Austria, and stored at 4 °C until use. RBC concentrate (0.556 mL) was freshly diluted by adding sterile Dulbecco’s PBS (pH 7.4) (1.944 mL) before the test to obtain an equivalent amount of whole blood (EWB). Then EWB was 50 times diluted in sterile Dulbecco’s PBS (pH 7.4). The diluted blood on visual inspection was turbid and settled down upon leaving undisturbed, indicating no cell lysis. Arg-surfactant stock solutions were prepared in the concentration range of 10–5000 μg mL^–1 in PBS. For comparison, BAC and cetrimide solutions were prepared in the same concentration range in PBS. For the assay, 10 μL of each test sample was mixed with 190 μL of diluted blood, resulting in the testing final concentrations of 0.5–250 μg mL^–1. For the positive control, 10 μL of 20% v/v Triton X-100 and, for the negative control, 10 μL of sterile Dulbecco’s PBS were mixed with 190 μL of diluted blood. All samples and controls were incubated for 1 h at 37 °C with shaking. After centrifugation at 10 000 rpm for 60 s, aliquots of 100 μL were withdrawn from the supernatants and transferred to a 96-well plate. Absorbance was measured at a wavelength of 420 nm. The extent of hemolysis as a percentage was determined by using the following equation: [drawing 6]

| SMILES | logP [1] | percentage of arginine ester cleaved by lipase [2] | cytotoxicity (samples showing >80% cell viability considered nontoxic) [3] | EC50 [3] | HC50 (concentration causing lysis of 50% red blood cells) [4] |
| --- | --- | --- | --- | --- | --- |
| CCCCCCCCCCCCC(CCCCCCCCCC)COC(=O)[C@@H](N)CCCNC(=N)N.O=C(O)C(F)(F)F (stereo partly shown) [Arg-DT, 2-Decyltetradecyl Argininate Trifluoroacetate] | 0.6 | 85% | noncytotoxic | 4500 µg/mL | 125 μg mL^–1 |
| CCCCCCCCC=CCCCCCCCCOC(=O)[C@@H](N)CCCNC(=N)N.O=C(O)C(F)(F)F [Arg-OL, Octadec-9-en-1-yl Argininate Trifluoroacetate] | 0.3 | 93% | cytotoxic | 2600 µg/mL | 60 μg mL^–1 |
